The values that follow come from ChEMBL document CHEMBL1255340, “In vitro activities of the Rx-01 oxazolidinones against hospital and community pathogens” (2008).

Values after ≈ are worked out from the molar mass of the structure shown. Values joined by “and” are separate entries in the source; they are usually repeats but may differ in a detail not shown here. Identical values can stand only once.

Assay type in all cases: functional
The subject of test [1] is Enterococcus faecium. The test is described as follows: Antimicrobial activity against Enterococcus faecium A8130.
Test [2] concerns Staphylococcus aureus. The test is described as follows: Antimicrobial activity against Staphylococcus aureus A8761.
For test [3], the system named is Enterococcus faecalis. The test is described as follows: Antimicrobial activity against Enterococcus faecalis A5962.
For test [4], the system named is Enterococcus faecium. The test is described as follows: Antimicrobial activity against Enterococcus faecium A5959.
Test [5] relates to Streptococcus pneumoniae. The test is described as follows: Antimicrobial activity against Streptococcus pneumoniae PU1071099 harboring 65WR66 deletion in ribosomal protein L4 by broth microdilution method. (In general: Broth dilution looks for growth in wells or tubes with falling amounts of substance.)
Test [6] deals with Staphylococcus aureus. The test is described as follows: Antimicrobial activity against Staphylococcus aureus A8727.
Test [7] deals with Streptococcus pneumoniae. The test is described as follows: Antimicrobial activity against Streptococcus pneumoniae 02J1175.
Test [8] has as its system Streptococcus pyogenes. The test is described as follows: Antimicrobial activity against Streptococcus pyogenes.
For test [9], the system named is Staphylococcus capitis. The test is described as follows: Antimicrobial activity against Staphylococcus capitis A8935.
Test [10] concerns Haemophilus influenzae. The test is described as follows: Antimicrobial activity against Haemophilus influenzae A1950.
Test [11] concerns Enterococcus faecium. The test is described as follows: Antimicrobial activity against Enterococcus faecium A6349.
The test system of test [12] is Enterococcus faecium. Put plainly: Antimicrobial activity against Enterococcus faecium A9621 by broth microdilution method.
In test [13] the test system is Enterococcus faecium. Put plainly: Antimicrobial activity against Enterococcus faecium A6345.
In test [14] the test system is Enterococcus faecalis. Put plainly: Antimicrobial activity against vancomycin-resistant Enterococcus faecalis 03B1069.
The test system of test [15] is Staphylococcus aureus. The test is described as follows: Antimicrobial activity against Staphylococcus aureus pLXM1 harboring cfr gene.
The test system of test [16] is Enterococcus faecalis. The test is described as follows: Antimicrobial activity against Enterococcus faecalis ATCC 29212-P5 harboring G2576U mutation in 23S rRNA.
The subject of test [17] is Enterococcus faecium. The test is described as follows: Antimicrobial activity against Enterococcus faecium A9650.
Test [18] has as its system Staphylococcus aureus. Put plainly: Antimicrobial activity against methicillin-resistant Staphylococcus aureus BK 11512.
For test [19], the system named is Enterococcus faecium. Put plainly: Antimicrobial activity against Enterococcus faecium A8767.
Test [20] relates to Enterococcus faecalis. Put plainly: Antimicrobial activity against Enterococcus faecalis A6343.
Test [21] has as its system Streptococcus pneumoniae. The test is described as follows: Antimicrobial activity against Streptococcus pneumoniae 02J1258.
The test system of test [22] is Staphylococcus aureus. Put plainly: Antimicrobial activity against Staphylococcus aureus pL150.
The subject of test [23] is Staphylococcus aureus. The test is described as follows: Antimicrobial activity against methicillin resistant Staphylococcus aureus 67-0.
Test [24] concerns Enterococcus faecium. The test is described as follows: Antimicrobial activity against Enterococcus faecium A8948.
Test [25] concerns Staphylococcus aureus. Put plainly: Antimicrobial activity against methicillin-resistant Staphylococcus aureus BK 11118.
The test system of test [26] is Staphylococcus aureus. Put plainly: Antimicrobial activity against Staphylococcus aureus A8831 harboring U2500A mutation in 23S rRNA.
The test system of test [27] is Staphylococcus hominis. The test is described as follows: Antimicrobial activity against Staphylococcus hominis A7828.
In test [28] the test system is Staphylococcus aureus. Put plainly: Antimicrobial activity against Staphylococcus aureus A7817.
The subject of test [29] is Staphylococcus aureus. The test is described as follows: Antimicrobial activity against Staphylococcus aureus A8833 harboring U2500A mutation in 23S rRNA.
Test [30] has as its system Staphylococcus aureus. The test is described as follows: Antimicrobial activity against Staphylococcus aureus A7820.
Test [31] concerns Enterococcus faecalis. The test is described as follows: Antimicrobial activity against Enterococcus faecalis A7789.
Test [32] concerns Enterococcus faecalis. The test is described as follows: Antimicrobial activity against Enterococcus faecalis ATCC 29212.
In test [33] the test system is Staphylococcus aureus. The test is described as follows: Antimicrobial activity against Staphylococcus aureus ATCC 29213.
The test system of test [34] is Enterococcus faecalis. The test is described as follows: Antimicrobial activity against Enterococcus faecalis A6350.
Test [35] has as its system Staphylococcus aureus. The test is described as follows: Antimicrobial activity against Staphylococcus aureus A7819 harboring G2576U mutation in 23S rRNA.
The test system of test [36] is Staphylococcus epidermidis. The test is described as follows: Antimicrobial activity against Staphylococcus epidermidis A8934.
Test [37] deals with Haemophilus influenzae. Put plainly: Antimicrobial activity against Haemophilus influenzae 54A1100.
Test [38] deals with Enterococcus faecium. The test is described as follows: Antimicrobial activity against Enterococcus faecium A5960.
Test [39] relates to Streptococcus pneumoniae. The test is described as follows: Antimicrobial activity against Streptococcus pneumoniae harboring erm(B) gene by broth microdilution method. Conditions: Streptococcus pneumoniae; read-out: MIC.
For test [40], the system named is Enterococcus faecium. The test is described as follows: Antimicrobial activity against Enterococcus faecium A6348 harboring G2576U mutation in 23S rRNA.
Test [41] concerns Enterococcus faecalis. The test is described as follows: Antimicrobial activity against vancomycin-resistant Enterococcus faecalis nosocomial isolate.
In test [42] the test system is Enterococcus faecium. The test is described as follows: Antimicrobial activity against vancomycin-resistant Enterococcus faecium nosocomial isolate.
The subject of test [43] is Chlamydia trachomatis. The test is described as follows: Antimicrobial activity against Chlamydia trachomatis isolated from human respiratory tract by broth microdilution method.
The subject of test [44] is Enterococcus faecium. Put plainly: Antimicrobial activity against vancomycin-susceptible Enterococcus faecium nosocomial isolate by broth microdilution method.
The subject of test [45] is Streptococcus pyogenes. Put plainly: Antimicrobial activity against Streptococcus pyogenes harboring mef(A) gene.
For test [46], the system named is Enterococcus faecium. The test is described as follows: Antimicrobial activity against Enterococcus faecium A6349 harboring G2576U mutation in 23S rRNA.
The test system of test [47] is Legionella pneumophila. The test is described as follows: Antimicrobial activity against Legionella pneumophila isolated from human respiratory tract by broth microdilution method.
The subject of test [48] is Chlamydia pneumoniae. The test is described as follows: Antimicrobial activity against Chlamydophila pneumoniae isolated from human respiratory tract by broth microdilution method.
Test [49] deals with Staphylococcus aureus. Put plainly: Antimicrobial activity against methicillin-susceptible Staphylococcus aureus nosocomial isolate.
Setting [50] is: Enterococcus faecium, read-out: MIC.
Setting [51] is: Streptococcus pyogenes, read-out: MIC.

In the case of `CC[C@H]1OC(=O)[C@H](C)[C@@H](O[C@H]2C[C@@](C)(OC)[C@@H](O)[C@H](C)O2)[C@H](C)[C@@H](O[C@@H]2O[C@H](C)C[C@H](N(C)C)[C@H]2O)[C@](C)(O)C[C@@H](C)CN(C)[C@H](C)[C@@H](O)[C@]1(C)O` [AZITHROMYCIN], the MIC in [1] was 4 µg/mL (≈ 5.34 µM); in [2], > 128 µg/mL; in test [3] it was > 128 µg/mL; in [4], 8 µg/mL (≈ 10.7 µM); in [5], 4 µg/mL (≈ 5.34 µM); in test [6], 16 µg/mL (≈ 21.4 µM). The MIC in test [7] was 32 µg/mL (≈ 42.7 µM); in test [8], 0.03 µg/mL and 0.06 µg/mL; in test [9], 64 µg/mL (≈ 85.4 µM); in [10] it was 4 µg/mL (≈ 5.34 µM); in test [11], > 128 µg/mL; in [12], 16 µg/mL (≈ 21.4 µM). Besides, the MIC is 2 µg/mL (≈ 2.67 µM) in test [13]; > 128 µg/mL in test [14]; 0.5 µg/mL (≈ 0.668 µM) in test [15]; 8 µg/mL (≈ 10.7 µM) in [16]; > 128 µg/mL in test [17]; > 128 µg/mL in test [18]. In addition, the MIC in test [19] is > 128 µg/mL; in [20], > 128 µg/mL; in [21] it was > 128 µg/mL; in test [22], 0.25 µg/mL (≈ 0.334 µM); in test [23], > 128 µg/mL; in test [24], > 128 µg/mL. Also, the MIC was > 128 µg/mL in test [25]; > 128 µg/mL in test [26]; > 128 µg/mL in test [27]; 1 µg/mL (≈ 1.34 µM) in test [28]; > 128 µg/mL in [29]; > 128 µg/mL in test [30]. Also, the MIC in test [31] is > 128 µg/mL; in [32], 8 µg/mL (≈ 10.7 µM); in test [33], 1 µg/mL (≈ 1.34 µM); in test [34], 4 µg/mL (≈ 5.34 µM); in [35], 2 µg/mL (≈ 2.67 µM); in test [36], > 128 µg/mL. The MIC in [37] was 1 µg/mL (≈ 1.34 µM); in [38] it was > 128 µg/mL; in test [39] it was > 128 µg/mL; in test [40], > 128 µg/mL.
For `CN[C@H](CC(C)C)C(=O)N[C@H]1C(=O)N[C@@H](CC(N)=O)C(=O)N[C@H]2C(=O)N[C@H]3C(=O)N[C@H](C(=O)N[C@H](C(=O)O)c4cc(O)cc(O)c4-c4cc3ccc4O)[C@H](O)c3ccc(c(Cl)c3)Oc3cc2cc(c3O[C@@H]2O[C@H](CO)[C@@H](O)[C@H](O)[C@H]2O[C@H]2C[C@](C)(N)[C@H](O)[C@H](C)O2)Oc2ccc(cc2Cl)[C@H]1O` [VANCOMYCIN], the MIC was 8 µg/mL (≈ 5.52 µM) in [3]; >16 µg/mL in [41]; ≤ 0.25 µg/mL in test [5]; 0.25 µg/mL (≈ 0.173 µM) in [7]; 1 µg/mL (≈ 0.69 µM) in test [9]; 32 µg/mL (≈ 22.1 µM) in test [14]. Also, the MIC in test [42] (setting [50]) was > 64 µg/mL; in [16] it was 2 µg/mL (≈ 1.38 µM); in test [21] it was 0.125 µg/mL (≈ 0.0863 µM); in [27], 2 µg/mL (≈ 1.38 µM); in test [31], 1 µg/mL (≈ 0.69 µM); in test [32], 2 µg/mL (≈ 1.38 µM). In addition, the MIC in test [34] came to 1 µg/mL (≈ 0.69 µM).
Consider `CC(=O)NC[C@H]1CN(c2ccc(N3CCOCC3)c(F)c2)C(=O)O1` [LINEZOLID], for which the MIC in test [1] is 32 µg/mL (≈ 94.9 µM); in test [2], 16 µg/mL (≈ 47.4 µM); in [3], 32 µg/mL (≈ 94.9 µM); in test [43], 16 µg/mL (≈ 47.4 µM); in test [43] (Chlamydia trachomatis, read-out: MIC) it was 8 µg/mL (≈ 23.7 µM); in test [4] it was 32 µg/mL (≈ 94.9 µM). Also, the MIC in [6] was 8 µg/mL (≈ 23.7 µM); in test [7], 0.25 µg/mL (≈ 0.741 µM); in test [8], 2 µg/mL and 4 µg/mL; in test [8] (setting [51]), 2 µg/mL (≈ 5.93 µM); in [9], 16 µg/mL (≈ 47.4 µM); in [10], 16 µg/mL (≈ 47.4 µM). Besides, the MIC was found to be 16 µg/mL (≈ 47.4 µM) in [11]; 64 µg/mL (≈ 190 µM) in test [12]; 32 µg/mL (≈ 94.9 µM) in test [13]; 4 µg/mL (≈ 11.9 µM) in [42]; 2 µg/mL (≈ 5.93 µM) in test [42] (setting [50]); 8 µg/mL (≈ 23.7 µM) in [44]. The MIC was 4 µg/mL (≈ 11.9 µM) in test [44] (setting [50]); 8 µg/mL (≈ 23.7 µM) in test [15]; 32 µg/mL (≈ 94.9 µM) in [16]; 16 µg/mL (≈ 47.4 µM) in test [17]; 8 µg/mL (≈ 23.7 µM) in test [19]; 2 µg/mL and 4 µg/mL in [45]. Also, the MIC in [45] (setting [51]) was determined as 2 µg/mL (≈ 5.93 µM); in test [46], 16 µg/mL (≈ 47.4 µM); in [20], 32 µg/mL (≈ 94.9 µM); in [24], 8 µg/mL (≈ 23.7 µM); in test [47], 8 µg/mL (≈ 23.7 µM); in [47] (Legionella pneumophila, read-out: MIC), 4 µg/mL (≈ 11.9 µM). Moreover, the MIC in [48] is 1 µg/mL (≈ 2.96 µM); in test [26] it was 128 µg/mL (≈ 379 µM); in [27], 64 µg/mL (≈ 190 µM); in test [28], 64 µg/mL (≈ 190 µM); in test [29], 64 µg/mL (≈ 190 µM); in test [30] it was 64 µg/mL (≈ 190 µM). The MIC was 64 µg/mL (≈ 190 µM) in test [31]; 64 µg/mL (≈ 190 µM) in test [35]; 32 µg/mL (≈ 94.9 µM) in [36]; 16 µg/mL (≈ 47.4 µM) in [37]; 64 µg/mL (≈ 190 µM) in test [38]; 64 µg/mL (≈ 190 µM) in test [40].
Take `CC[C@H]1OC(=O)[C@H](C)C(=O)[C@H](C)[C@@H](O[C@@H]2O[C@H](C)C[C@H](N(C)C)[C@H]2O)[C@](C)(OC)C[C@@H](C)C(=O)[C@H](C)[C@H]2N(CCCCn3cnc(-c4cccnc4)c3)C(=O)O[C@]12C` [TELITHROMYCIN]: the MIC entry in test [49] is “>=0.06 ug ml-1 and 0.125 ug ml-1”.
